Measured values taken from US20250269018A1, “COMBINED CANCER THERAPY WITH AN EPITHELIAL CELL ADHESION MOLECULE (EPCAM) INHIBITOR AND A HEPATOCYTE GROWTH FACTOR RECEPTOR (HGFR) INHIBITOR” (ACADEMIA SINICA, priority 2021, published 2025).
Peptide text beside a SMILES is read from it. * marks the point of attachment. Cbz = O=C(OCc1ccccc1)*

Tests used:
[1] = tested on: GSK3β, active β-catenin and Snail; assay: Western blotting of GSK3β, active β-catenin, Snail and EMT proteins in HCT116 cells; type: cell-based, human
[2] = tested on: GSK3β, active β-catenin and Snail; assay: as above; type: cell-based, human; remark: listed apart in the source
Procedure: FIGS. 4A to 4L. EpEX induces EMT and invasion by stabilizing β-catenin and Snail through decreasing GSK3β activity. (FIG. 4A) The protein expression of EMT markers and regulators was detected by Western blotting in Wild-type (WT) or EpCAM knockout (KO) HCT116 cells after EpEX treatment. (FIG. 4B) Cell invasion was examined by Transwell chamber assay with matrigel. (FIG. 4C) WT or KO HCT116 and HT29 cells were starved for 16 h, then treated with 0.5 nM of HGF with 2% FBS for 24 h. EMT-related protein expression (E-cadherin, vimentin, and Snail) was examined by Western blotting. (FIG. 4D) WT or KO HCT116 and HT29 cells were treated with HGF (0.5 nM) for 24 h. Invasion by HCT116 and HT29 cells was examined by Transwell chamber assay with matrigel. (FIG. 4E) HCT116 and HT29 cells were starved for 16 h, then treated with 0.5 nM of HGF with 2% FBS for 24 h. EMT-related protein expression (E-cadherin, Vimentin, and Snail) was examined by Western blotting. (FIG. 4F) HCT116 and HT29 cells were starved for 16 h, then treated with 0.5 nM of HGF with 2% FBS for 24 h. Cell invasion was assessed by a Transwell assay with matrigel. (FIG. 4G) HCT116 cells after shLuc and shHGFR treatment were treated with 50 nM of EpEX-His. HCT116 cells after shLuc and shHGFR treatment were treated with 50 nM of EpEX-His with 2% FBS for 24 h. EMT-related protein expression (E-cadherin, Vimentin, and Snail) was examined by Western blotting. (FIG. 4H) Cell invasion was examined by Transwell chamber assay with matrigel. (FIG. 4I) Starved HCT116 cells were treated SU (10 μM) for 1 h, followed by treatment with EpEX-His (50 nM) for 24 h. Phosphorylated GSK3β, active-β-catenin, and Snail were detected by Western blotting. (FIG. 4J) HCT116 cells were starved for 16 h, then treated with 50 nM EpEX-His for 24 min. AKT inhibitor LY294002 (25 μM), ERK inhibitor U0126 (20 μM), or PF-562271 (10 μM) were applied 1 h before EpEX treatment. Protein expression of phosphorylated GSK3β and Snail was examined by Western blotting. (FIG. 4K) HCT116 cells were starved for 16 h, then treated with 50 nM EpEX, and SU (10 μM), LY (25 μM), UO (20 μM) or PF (10 μM). Cell invasion was examined by Transwell chamber assay with matrigel. (FIG. 4L) Protein expression was analyzed by Western blotting in EpEX-His (50 nM) treated HCT116 cells after treatment with or without 2 μM GSK3β inhibitor (BIO) for 24 h. Quantification of the normalized protein expression in the right panel.
FIGS. 5A to 5I. EpEX promotes Snail protein stability through inhibition of ubiquitination-mediated proteasomal degradation. (FIG. 5A) The gene expression of EMT markers and regulators was detected by qRT-PCR in Wild-type (WT) or EpCAM knockout (KO) of HCT116 and HT29 cells. (FIG. 5B) Stability of Snail protein in WT or KO of HCT116 cells. Cells were treated with cyclohexamide (CHX) 100 μg/ml at the indicated intervals and subjected to Western blotting. (FIG. 5C) The protein expression of Snail was analyzed in WT or KO HCT116 cells by treating with or without […] MG132 (proteasome inhibitor) for 6 h, followed by Western blotting. (FIG. 5D) WT or KO HCT116 cells were treated with 10 μM MG132 for 6 h before cell collection. The lysates were subjected to immunoprecipitation using anti-Snail antibody and input. Western blotting was performed with the indicated antibodies to detect ubiquitinated Snail protein. (FIG. 5E) Stability of Snail protein in HCT116 cells after EpEX (50 nM) treatment for 24 h. Cells were treated with cyclohexamide (CHX; 100 μg/ml) for the indicated intervals and then subjected to Western blotting. (FIG. 5F) Expression of the gene encoding SNAIL was detected by qRT-PCR in HCT116 cells after EpEX (50 nM) treatment for 24 h. (FIG. 5G) The protein expression of Snail in HCT116 was analyzed cells by Western blotting after EpEX (50 nM) treatment for 24 h, and treatment with or without 10 μM MG132 (proteasome inhibitor) for 6 h. […]

SMILES	active β-catenin and Snail proteins ([1]; EpAb2-6 and 2 μM BIO 24 h, FIG. 6H)	active β-catenin and Snail protein expressions ([2]; HCT116, control and EpEX-His (50 nM) treated, 2 μM BIO 24 h, FIG. 4L)	Active β-catenin and Snail steady-state protein levels ([1]; 10 μM MG132 and EpAb2-6 for 6 h, FIG. 6I)	Snail steady-state protein levels ([2]; HCT116 with or without EpEX (50 nM, 24 h), 10 μM MG132 6 h, FIG. 5G)	Snail steady-state protein levels ([2]; WT or EpCAM KO HCT116, for 6 h, FIG. 5C)
O=C1Nc2cc(Br)ccc2/C1=C1/Nc2ccccc2/C1=N\O [BIO]	increased	upregulated both in control and EpEX-treated cells			
CC(C)C[C@@H](C=O)NC(=O)[C@H](CC(C)C)NC(=O)[C@H](CC(C)C)NC(=O)OCc1ccccc1 [MG132] (Cbz-Leu-Leu-Leu-aldehyde)			increased active β-catenin and Snail steady-state protein levels	increased Snail steady-state protein levels	increased Snail steady-state protein levels
